According to PubChem BioAssay (NCI):
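Where inhibition never reached the appropriate level, the endpoint shown equals the highest concentration tested. Otherwise, values were interpolated linearly from a five-concentration, 48-hour dose response in 96-well plates. GI50 = concentration required for 50% inhibition of growth. At the TGI there is no net growth.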

Experiments:
Experiment in all cases: growth of human tumour cells (NCI), 48 h
[1] = test system: 786-0 renal
[2] = test system: A498 renal
[3] = test system: A549 NSCLC
[4] = test system: CAKI-1 renal
[5] = test system: DU-145 prostate
[6] = test system: HCC-2998 colon
[7] = test system: HCT-15 colon
[8] = test system: K-562 leukemia
[9] = test system: M14 melanoma
[10] = test system: MALME-3M melanoma
[11] = test system: MCF7 breast
[12] = test system: MDA-MB-435
[13] = test system: NCI-H23 lung
[14] = test system: NCI-H522 lung
[15] = test system: OVCAR-8 ovarian
[16] = test system: SF-295 CNS
[17] = test system: SK-OV-3 ovarian
[18] = test system: SNB-19 CNS
[19] = test system: T-47D breast

O=C(O)CC1NC(/C(=C/c2ccccc2)NC(=O)c2ccccc2)OC1=O (centres undefined)
TGI [1]: > 100 µM | TGI [2]: > 100 µM | TGI [3]: > 100 µM | TGI [4]: > 100 µM | TGI [5]: > 100 µM | TGI [6]: > 100 µM | TGI [7]: > 100 µM | TGI [8]: 56 µM | TGI [9]: 35.2 µM | TGI [10]: > 100 µM | TGI [11]: > 100 µM | TGI [12]: 67 µM | TGI [13]: > 100 µM | TGI [14]: 33.5 µM | TGI [15]: 66.5 µM | TGI [16]: > 100 µM | TGI [17]: > 100 µM | TGI [18]: 67.6 µM | TGI [19]: > 100 µM

CN(Cc1cnc2nc(N)nc(N)c2n1)c1ccc(C(=O)NC(CCC(=O)NCCC(P(=O)(O)O)P(=O)(O)O)C(=O)O)cc1 (centres undefined)
TGI [1]: > 100 µM | TGI [2]: > 100 µM | TGI [3]: > 100 µM | TGI [4]: > 100 µM | TGI [5]: > 100 µM | TGI [6]: > 100 µM | TGI [7]: > 100 µM | TGI [8]: > 100 µM | TGI [9]: > 100 µM | TGI [10]: > 100 µM | TGI [11]: > 100 µM | TGI [12]: > 100 µM | TGI [13]: > 100 µM | TGI [14]: > 100 µM | TGI [15]: > 100 µM | TGI [16]: > 100 µM | TGI [17]: > 100 µM | TGI [18]: > 100 µM | TGI [19]: > 100 µM

O=C(NC(Cc1c[nH]c2ccccc12)C(=O)Nc1ccc(Br)cc1)OCc1ccccc1 (centres undefined)
TGI [1]: 25.2 µM | TGI [2]: 23.7 µM | TGI [3]: > 100 µM | TGI [4]: 34.6 µM | TGI [5]: 29.2 µM | TGI [6]: 23.1 µM | TGI [7]: 26.7 µM | TGI [8]: 51.3 µM | TGI [9]: 27.6 µM | TGI [10]: 34.1 µM | TGI [11]: 29.3 µM | TGI [12]: 22.1 µM | TGI [13]: 26.5 µM | TGI [14]: 28.6 µM | TGI [15]: 30.3 µM | TGI [16]: 23.9 µM | TGI [17]: 46.3 µM | TGI [18]: 90.8 µM | TGI [19]: 53 µM

CC1(C)CC(=O)c2[nH]c3ccccc3c2CC(=O)NCCc2cn1cn2
TGI [1]: > 100 µM | TGI [2]: > 100 µM | TGI [3]: > 100 µM | TGI [4]: > 100 µM | TGI [5]: > 100 µM | TGI [6]: > 100 µM | TGI [7]: > 100 µM | TGI [8]: > 100 µM | TGI [9]: > 100 µM | TGI [10]: > 100 µM | TGI [11]: > 100 µM | TGI [12]: > 100 µM | TGI [13]: > 100 µM | TGI [14]: > 100 µM | TGI [15]: > 100 µM | TGI [16]: > 100 µM | TGI [17]: > 100 µM | TGI [18]: > 100 µM | TGI [19]: > 100 µM

Oc1cn(-c2ccc(Cl)cc2)nc1-c1nnc(-c2ccccc2)o1
TGI [1]: 12.2 µM | TGI [2]: 56.3 µM | TGI [3]: 31.5 µM | TGI [4]: 11.1 µM | TGI [5]: > 60.6 µM | GI50 [6]: 0.739 µM | TGI [6]: 5.91 µM | TGI [7]: 27.2 µM | TGI [8]: 19.6 µM | TGI [9]: 11.7 µM | TGI [10]: 31.8 µM | TGI [11]: 7.16 µM | TGI [12]: 10.4 µM | TGI [13]: 1.01 µM | TGI [14]: 22.9 µM | TGI [15]: 14.2 µM | TGI [16]: 4.52 µM | TGI [17]: > 74 µM | TGI [18]: > 68.5 µM | TGI [19]: > 92.7 µM

C=C1C(=O)C[C@H]2C(=C)C(=O)O[C@@H]2C2C1CC[C@@]2(C)O (some centres undefined)
TGI [1]: 77.7 µM | TGI [2]: > 100 µM | TGI [3]: > 100 µM | TGI [4]: 40.3 µM | TGI [5]: > 100 µM | TGI [6]: 38.1 µM | TGI [7]: 69.2 µM | TGI [8]: > 100 µM | TGI [9]: 33.5 µM | TGI [10]: 44.9 µM | TGI [11]: 36.1 µM | TGI [12]: > 100 µM | TGI [13]: 59.4 µM | TGI [14]: 41.4 µM | TGI [15]: > 100 µM | TGI [16]: > 100 µM | TGI [17]: > 100 µM | TGI [18]: > 100 µM | TGI [19]: 68.8 µM

CC(C)(C)NC(NC(C)(C)C)=C(/C=C(/Cl)[N+](=O)[O-])[N+](=O)[O-]
TGI [1]: > 100 µM | TGI [2]: > 100 µM | TGI [3]: 95.3 µM | TGI [4]: > 100 µM | TGI [5]: > 100 µM | TGI [6]: > 100 µM | TGI [7]: > 100 µM | TGI [8]: > 100 µM | TGI [9]: 92.5 µM | TGI [10]: 24.4 µM | TGI [11]: > 100 µM | TGI [12]: 38.3 µM | TGI [13]: > 100 µM | TGI [14]: > 100 µM | TGI [15]: > 100 µM | TGI [16]: > 100 µM | TGI [17]: > 100 µM | TGI [18]: > 100 µM | TGI [19]: > 100 µM
